This assay deals with BthII1283 (Burkholderia thailandensis, UniProt Q2T5S0).

Regarding `Cn1c(=O)[nH]c2nncnc2c1=O` [1-DMT], the “HPLC and HRMS of methylation product” value is recorded as “Reumycin (1-DMT) is converted to a single product with an identical retention time”.

The record behind these values is paper PMC6559721 (Biochemistry, 2017).
